Laboratory results: patent publication US11976068B2 (CHIMERIX, INC., priority 2015, dated 2024)
Values joined by “and” are separate entries in the source; they are usually repeats but may differ in a detail not shown here. Identical values can stand only once.

What was measured:
[1] = tested on: advanced solid tumors; experiment: Phase I trial, tumor response (RECIST); format: in vivo, human
Protocol: Tumor responses were assessed using RECIST every 2 cycles.

[2] = target: human MDR1 (Homo sapiens, UniProt P08183); settings: at 200 micromolar
[3] = Phase I trial, plasma pharmacokinetics of oral ONC201; settings: for AUC(0-t): AUClast; for Vd/F: Vz/F
[4] = N=6 patients receiving 625 mg ONC201 every three weeks
[5] = human, in vivo, 625 mg, Mean, N=6 patients receiving 625 mg ONC201 every three weeks
[6] = human, in vivo, 625 mg, Median, N=6 patients receiving 625 mg ONC201 every three weeks
[7] = human, in vivo, 625 mg, Geo. Mean, N=6 patients receiving 625 mg ONC201 every three weeks

Sequence of human MDR1 (P08183 whole entry): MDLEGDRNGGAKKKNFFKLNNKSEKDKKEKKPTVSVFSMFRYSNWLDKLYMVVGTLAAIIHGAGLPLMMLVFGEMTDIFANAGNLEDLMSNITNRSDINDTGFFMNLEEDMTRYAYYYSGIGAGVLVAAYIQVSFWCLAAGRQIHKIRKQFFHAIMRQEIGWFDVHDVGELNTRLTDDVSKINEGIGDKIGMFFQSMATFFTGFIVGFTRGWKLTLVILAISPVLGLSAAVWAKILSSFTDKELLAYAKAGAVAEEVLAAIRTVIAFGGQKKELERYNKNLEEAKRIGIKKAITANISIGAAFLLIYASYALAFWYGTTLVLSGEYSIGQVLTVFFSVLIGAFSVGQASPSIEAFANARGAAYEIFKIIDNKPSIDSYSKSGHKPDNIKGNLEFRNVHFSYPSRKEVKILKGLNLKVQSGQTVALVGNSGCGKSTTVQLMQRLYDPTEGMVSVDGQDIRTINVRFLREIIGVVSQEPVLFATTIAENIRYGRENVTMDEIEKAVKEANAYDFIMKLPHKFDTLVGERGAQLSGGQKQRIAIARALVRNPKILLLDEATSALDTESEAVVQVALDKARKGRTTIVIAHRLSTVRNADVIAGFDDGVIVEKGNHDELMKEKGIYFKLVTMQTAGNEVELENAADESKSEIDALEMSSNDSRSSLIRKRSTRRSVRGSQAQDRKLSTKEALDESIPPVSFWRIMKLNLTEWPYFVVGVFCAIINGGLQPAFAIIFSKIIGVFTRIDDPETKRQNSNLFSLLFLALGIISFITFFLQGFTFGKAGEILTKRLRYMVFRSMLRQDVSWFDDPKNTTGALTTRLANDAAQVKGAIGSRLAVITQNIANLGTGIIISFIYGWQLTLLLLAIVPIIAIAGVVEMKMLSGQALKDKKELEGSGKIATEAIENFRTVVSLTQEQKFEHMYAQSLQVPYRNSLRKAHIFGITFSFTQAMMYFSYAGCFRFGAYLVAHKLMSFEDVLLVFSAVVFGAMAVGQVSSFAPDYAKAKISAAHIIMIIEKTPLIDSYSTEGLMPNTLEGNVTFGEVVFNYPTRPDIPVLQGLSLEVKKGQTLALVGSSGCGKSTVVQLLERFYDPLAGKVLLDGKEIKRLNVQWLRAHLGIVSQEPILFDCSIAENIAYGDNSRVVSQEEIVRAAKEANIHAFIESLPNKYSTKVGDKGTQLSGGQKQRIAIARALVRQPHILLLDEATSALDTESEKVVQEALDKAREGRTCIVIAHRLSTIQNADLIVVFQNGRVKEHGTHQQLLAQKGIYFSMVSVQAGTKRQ

In the case of `Cc1ccccc1CN1C(=O)C2=C(CCN(Cc3ccccc3)C2)N2CCN=C12` [ONC201, 7-benzyl-4-(2-methylbenzyl)-2,4,6,7,8,9-hexahydroimidazo [1,2-a]pyrido[3,4-e]pyrimidin-5(1H)-one], the “Time on Study” value ([1]; Pat # 1, NSCLC, 125 mg, 4 doses) is reported as 12 weeks, the “Time on Study” value ([1]; Pat # 2, Appendiceal cancer, 250 mg, 4 doses) is reported as 12 weeks and the “Time on Study” value ([1]; Pat # 3, Uterine cancer, 375 mg, 2 doses) is reported as 6 weeks. The “Time on Study” value ([1]; Pat # 4, Renal cancer, 500 mg, 2 doses) was 6 weeks, the “Time on Study” value ([1]; Pat # 5, Breast cancer, 625 mg, 2 doses) was 6 weeks and the “Time on Study” value ([1]; Pat # 6, Prostate adenocarcinoma, 625 mg, 9 doses) was 27 weeks. The “Time on Study” value ([1]; Pat # 7, Small cell lung cancer, 625 mg, 2 doses) was 6 weeks, the “Time on Study” value ([1]; Pat # 8, Colon adenocarcinoma, 625 mg, 4 doses) was 12 weeks and the “Time on Study” value ([1]; Pat # 9, Spindle cell sarcoma, 625 mg, 2 doses) was 6 weeks. For the same compound, the “Time on Study” value ([1]; Pat # 10, Ovarian, 625 mg, 1 dose) was 3 weeks, the “decrease of multiple nodes” value ([1]; Patient #3, advanced clear cell endometrial cancer, mixed response with new nodes) was over 30% and the symptom relief ([1]; Patient #4, renal cancer and bone metastasis with debilitating pain in the clavicle) was “relief from their clavicular pain”. The “patients with stable disease” value ([1]; dose escalation phase, 10 patients) was “Eight of 10”, the “inhibitor of MDR1” value [2] was “inhibitor” and the “AUC, Min” value [3, 4] was 13868 h · ng/m. For the same compound, the “CL/F, Geo. Mean” value [3, 4] was 25.41 L/h, the “CL/F, Max” value [3, 4] was 45.07 L/h and the “CL/F, Mean” value [3, 4] was 27.19 L/h. For the same compound, the “CL/F, Median” value [3, 4] was 24.83 L/h, the “CL/F, Min” value [3, 4] was 14.03 L/h and the “Cmax, Max” value [3, 4] was 7470 ng/mL. For the same compound, the “Cmax, Min” value [3, 4] was 1530 ng/mL, the “Tlag, Max” value [3, 4] was 0.30 h and the “Tlag, Mean” value [3, 4] was 0.05 h. The “Tlag, Median” value [3, 4] was 0.00 h, the “Tlag, Min” value [3, 4] was 0.00 h and the “Tmax, Max” value [3, 4] was 3.95 h. The “Tmax, Min” value [3, 4] was 0.37 h, the “t1/2, Max” value [3, 4] was 12.55 h and the “t1/2, Min” value [3, 4] was 7.71 h. The “λZ, Geo. Mean” value [3, 4] was 0.073 h⁻¹, the “λZ, Max” value [3, 4] was 0.090 h⁻¹ and the “λZ, Mean” value [3, 4] was 0.074 h⁻¹. The “λZ, Median” value [3, 4] was 0.072 h⁻¹, the “λZ, Min” value [3, 4] was 0.055 h⁻¹ and the concentration at 24 h ([3]; human, in vivo) was 0.9 µM. The Vd ([3]; human, in vivo, 625 mg) was 381 L, the AUC ([3]; human, in vivo, 625 mg, AUC, Geo. Mean, N=6 patients receiving 625 mg ONC201 every three weeks) was 24600 ng·h/mL and the AUC ([3]; human, in vivo, 625 mg, AUC, Mean, N=6 patients receiving 625 mg ONC201 every three weeks) was 26300 ng·h/mL. The AUC ([3]; human, in vivo, 625 mg, AUC, Median, N=6 patients receiving 625 mg ONC201 every three weeks) was 25600 ng·h/mL, the AUC(0-t) [3, 5] was 25500 ng·h/mL and the AUC(0-t) [3, 6] was 24300 ng·h/mL. It also gave a Cmax ([3]; human, in vivo, 625 mg, Cmax, Geo. Mean, N=6 patients receiving 625 mg ONC201 every three weeks) of 2890 ng/mL, a Cmax ([3]; human, in vivo, 625 mg, Cmax, Mean, N=6 patients receiving 625 mg ONC201 every three weeks) of 3310 ng/mL and a Cmax ([3]; human, in vivo, 625 mg, Cmax, Median, N=6 patients receiving 625 mg ONC201 every three weeks) of 2720 ng/mL. It also gave an AUC ([3]; human, in vivo, 625 mg, Mean AUC, top dose cohort (625 mg)) of 26300 ng·h/mL, a Tmax [3, 7] of 1.34 h and a Tmax [3, 5] of 1.79 h. For the same compound, the Tmax [3, 6] was 1.91 h, the Vd/F [3, 7] was 348 L and the Vd/F [3, 5] was 381 L. It also gave a Vd/F [3, 6] of 404 L, a Cmax ([3]; human, in vivo, 625 mg, mean Cmax, top dose cohort (625 mg), first dose) of 3310 ng/mL and a half-life ([3]; human, in vivo, 625 mg, mean t1/2, top dose cohort (625 mg)) of 9.62 h. It also gave a half-life ([3]; human, in vivo, 625 mg, t1/2, Geo. Mean, N=6 patients receiving 625 mg ONC201 every three weeks) of 9.49 h, a half-life ([3]; human, in vivo, 625 mg, t1/2, Mean, N=6 patients receiving 625 mg ONC201 every three weeks) of 9.62 h and a half-life ([3]; human, in vivo, 625 mg, t1/2, Median, N=6 patients receiving 625 mg ONC201 every three weeks) of 9.6 h. The Cmax ([3]; human, in vivo, Cmax, plasma, as quoted for the CYP margin) was 9 µM, the AUC ([3]; human, in vivo, po, 625 mg, AUC, oral ONC201, PK analysis) was 25000 ng·h/mL and the Cmax ([3]; human, in vivo, po, 625 mg, Cmax, 625 mg (RP2D) orally every 3 weeks) was 1500 ng/mL to 7500 ng/mL and 3.9 µM to 19.4 µM. For the same compound, the half-life ([3]; human, in vivo, po, 625 mg, half-life, oral ONC201, PK analysis) was 9.6 h and the “dose at which plasma concentrations / systemic exposure (AUC, Cmax) saturated” value ([3]; oral, dose escalation 125-625 mg) was 375 mg.
